Experimental findings from ChEMBL document CHEMBL1143855, “(2S,2'R)-analogue of LG190178 is a major active isomer” (Bioorg Med Chem Lett, 2008) are described below.

This test deals with T1, Vitamin D3 receptor (Homo sapiens) (UniProt P11473).
T1 sequence (whole entry): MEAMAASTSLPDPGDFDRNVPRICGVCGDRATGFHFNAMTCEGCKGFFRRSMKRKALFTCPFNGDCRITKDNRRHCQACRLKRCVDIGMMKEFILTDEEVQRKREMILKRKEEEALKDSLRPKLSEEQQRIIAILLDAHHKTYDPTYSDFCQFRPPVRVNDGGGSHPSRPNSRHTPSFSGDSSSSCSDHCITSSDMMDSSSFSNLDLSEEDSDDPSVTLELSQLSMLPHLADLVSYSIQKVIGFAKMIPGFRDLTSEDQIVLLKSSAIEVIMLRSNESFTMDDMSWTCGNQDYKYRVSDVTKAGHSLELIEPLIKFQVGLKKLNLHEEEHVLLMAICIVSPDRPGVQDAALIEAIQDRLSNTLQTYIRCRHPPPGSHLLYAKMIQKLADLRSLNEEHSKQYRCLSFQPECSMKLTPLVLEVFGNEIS
In words: Binding affinity to VDR relative to (1-alpha 25-(OH)2D3.
Take `CCC(CC)(c1ccc(OC[C@H](O)CO)c(C)c1)c1ccc(OC[C@H](O)C(C)(C)C)c(C)c1`: the Activity worked out at 0.482.

Take `CCC(CC)(c1ccc(OC[C@H](O)CO)c(C)c1)c1ccc(OC[C@@H](O)C(C)(C)C)c(C)c1`: the Activity stood at 0.112.

For `CCC(CC)(c1ccc(OC[C@@H](O)CO)c(C)c1)c1ccc(OC[C@@H](O)C(C)(C)C)c(C)c1`, the Activity worked out at 0.831.

Regarding `CCC(CC)(c1ccc(OC[C@@H](O)CO)c(C)c1)c1ccc(OC[C@H](O)C(C)(C)C)c(C)c1`, the Activity was found to be 28.3.
